From article PMC12035797, “Peptidomimetics Activating the Proteasome: A New Perspective for Parkinson’s Treatment” (Journal of Medicinal Chemistry, 2025)

Assays:
[1] = system: endogenous α-synuclein in primary cortical cultures; assay: Endogenous α-synuclein level in primary cortical cultures (Simple Western Jess); type: cell-based, mouse; settings: 2.5 μM, 7 days; statistical significance only for 1g
Procedure: The effectiveness of the compounds has also been examined by using proteins as substrates. By means of SDS-PAGE electrophoresis, we checked the extent to which model proteins were digested by the 20S proteasome alone and after its stimulation by 10 μM modulators. […] After incubation with the enzyme in the presence of each modulator, less than 40% of synuclein remained. […] All animal experiments were performed following the protocols evaluated and approved by the Laboratory Animal Centre of the University of Helsinki (Ethics Approval License KEK24-013) and in accordance with the European Community Guidelines (Directive 2010/63/EU). […] The viability and number of neuronal cells were calculated automatically in an Automated Cell Counter (Bio-Rad), plated at a density of 1,000,000 cells per well on 6-well plates and cultured in Neurobasal A Medium (Thermo Fisher Scientific (Gibco), #12349015, Waltham, MA, USA) supplemented with GlutaMAX (Thermo Fisher Scientific (Gibco) #A1286001, Waltham, MA, USA), B-27 Supplement (Thermo Fisher Scientific (Gibco), #17504001, Waltham, MA, USA), and 200 ng/mL Primocin (Invitrogen, ant-pm-1, San Diego, CA, USA). […] Protein concentrations in the cell lysates were determined using a bicinchoninic acid (BCA) assay (Sigma-Aldrich, 3B9643-1L-KC, MO, USA) according to the manufacturer’s instructions. […]

[2] = system: human 20S proteasome (α-synuclein substrate); assay: α-Synuclein degradation by h20S (SDS-PAGE); type: biochemical; settings: 10 μM modulator, 37 °C, 1.5 h; h20S alone = 100%
Procedure: The effectiveness of the compounds has also been examined by using proteins as substrates. By means of SDS-PAGE electrophoresis, we checked the extent to which model proteins were digested by the 20S proteasome alone and after its stimulation by 10 μM modulators. […] After incubation with the enzyme in the presence of each modulator, less than 40% of synuclein remained. […] The experiment was performed as it was described.[36] Briefly, α-synuclein (rPeptide, […], USA) and Tau-441 (Novus Biologicals, Centennial, CO, USA) were dissolved in 20 mM HEPES buffer (pH 7.4) and mixed with a human 20S proteasome. Samples were incubated at 37 °C for 1.5 h, after which the reaction was terminated by adding 4× Laemmli buffer. The levels of undigested proteins were evaluated by SDS-PAGE. The band intensities of proteins incubated with […] in the presence of a modulator were compared to those of proteins incubated with the enzyme alone, which were set as 100%. Three independent experiments were performed for each protein. The results are presented as the means ± SD. One-way ANOVA with Tukey's post-hoc test was used to determine statistical significance.

[3] = target: T1, human 20S proteasome, ChT-L peptidase; assay: Chymotrypsin-like (ChT-L) activity of h20S probed with Suc-LLVY-AMC; type: biochemical
T1 construct: human proteasome isolated from erythrocytes; from tissue; host or cells: human erythrocytes
Procedure: (§1) To assess the influence of substitutions increasing proteolytic stability on the modulators’ capacity to stimulate chymotrypsin-like, trypsin-like, and caspase-like activity of h20S, we used classic fluorogenic substrates: Suc-LLVY-AMC, Boc-LRR-AMC, and Z-LLE-AMC, respectively.
(§2) The effect of all synthesized peptidomimetics on the catalytic activity of the proteasome was tested using a human proteasome isolated from erythrocytes. Suc-LLVY-AMC, Boc-LRR-AMC, and Z-LLE-AMC fluorogenic substrates (Bachem, Bubendorf, Switzerland) were used for assessment of the chymotrypsin-, trypsin-, and caspase-like activities, respectively. A homemade FRET-type substrate Dabcyl-EDANS (Lys(Dabcyl)-[…]EDANS)-Gly)[26] was used as an additional probe. Stock solutions of the substrates and tested peptidomimetics were prepared in dimethyl sulfoxide (DMSO), ensuring that the final concentration of DMSO in all samples remained consistent at 2%. The small fluorogenic substrates were used at a final concentration of 100 μM, while Dabcyl-EDANS was prepared at a final concentration of 15 μM. […] Activity tests were conducted in 96-well plates using 50 mM Tris/HCl, pH 8.0, as an assay buffer. The final concentration of h20S proteasome was adjusted to 0.002 mg/mL (2.8 nM). The fluorescence of released aminomethylcoumarin (AMC) was monitored at 460 nm (λex was 380 nm), while the hydrolysis of Dabcyl-EDANS was detected by measuring emission at 493 nm (λex was set at 335 nm). Fluorescence measurements were taken continuously every 2 min over a 60 min period at 37 °C using a Tecan Infinite M200Pro spectrofluorometer (Tecan Trading AG, Männedorf, Switzerland). All activity assays were performed in at least three independent replicates. The relative activity was calculated in relation to the catalytic activity of the vehicle (DMSO)-treated latent proteasome, which was regarded as 100%. Statistical analysis was performed using the one-way ANOVA followed by Tukey’s post-hoc test. P-value <0.05 was considered statistically significant.

[4] = system: T2, human 20S proteasome, T-L peptidase; assay: Trypsin-like (T-L) activity of h20S probed with Boc-LRR-AMC; type: biochemical; settings: 100 μM Boc-LRR-AMC
T2 construct: human proteasome isolated from erythrocytes; from tissue; host or cells: human erythrocytes
Procedure: as §1, §2

`C[C@@H](O)[C@H](NC(=O)[C@H](Cc1ccccc1)NC(=O)[C@H](Cc1ccc(O)cc1)NC(=O)CN(CCCCN)C(=O)[C@H](CCCNC(=N)N)NC(=O)[C@H](CCCNC(=N)N)NC(=O)[C@H](CCCNC(=N)N)NC(=O)[C@H](CCC(N)=O)NC(=O)[C@H](CCCNC(=N)N)NC(=O)[C@H](CCCNC(=N)N)NC(=O)[C@H](CCCCN)NC(=O)[C@H](CCCCN)NC(=O)[C@@H](N)CCCNC(=N)N)C(=O)NCC(=O)N[C@@H](CO)C(=O)N[C@@H](CCCCN)C(=O)N[C@@H](CC(=O)O)C(=O)N[C@@H](Cc1c[nH]c2ccccc12)C(=O)N[C@@H](CCCNC(=N)N)C(=O)N[C@@H](CO)C(=O)N[C@@H](Cc1ccc(O)cc1)C(=O)N[C@@H](Cc1ccc(O)cc1)C(=O)N[C@@H](CO)C(=O)O` [1f] was tested, and the “effect on endogenous α-synuclein in primary cortical cultures” value [1] was “able to reduce the amount of endogenous α-synuclein”, the “α-synuclein remaining after incubation with h20S” value [2] was “less than 40%” and the EC50 ([3]; Suc-LLVY-AMC, n = 6, EC50 = concentration causing 50% growth of activity vs vehicle control) was 540 ± 100 nM. For the same compound, the “stimulation of proteasome activity” value ([3]; as summed up in Conclusions, substrate not named there) was “approximately 17 times”, the “stimulation of the ChT-L peptidase” value ([3]; at 1 μM concentration, Suc-LLVY-AMC) was “approximately 16 fold” and the “T-L stimulating capacity, Boc-LRR-AMC” value [4] was “activated the T-L less and less with an increasing concentration”.
